The source of these data is publication PMC7465886, “4-(N-Alkyl- and -Acyl-amino)-1,2,4-triazole-3-thione Analogs as Metallo-β-Lactamase Inhibitors: Impact of 4-Linker on Potency and Spectrum of Inhibition” (Biomolecules, 2020).

The target of assay [1] is T1, VIM-2 (Escherichia coli, UniProt Q5U7L7).
T1 construct: made in house; host or cells: E. coli BL21(DE3) derivative, pET-9a
Nature of the assay: MBL inhibition, reporter substrate method, VIM-2. The class given is biochemical. Here is the method: (§1) Compounds were prepared in DMSO at a final concentration of 50 mM prior to dilution in the assay buffer. The reaction rate was measured as the variation of absorbance observed upon substrate hydrolysis in a UV-Vis spectrophotometer or microplate reader at a wavelength of 300 nm (imipenem, meropenem), 260 nm (cefotaxime), or 482 nm (nitrocefin) and in the presence of a purified MBL enzyme (such as VIM-1, VIM-2, VIM-4, NDM-1, and IMP-1, at a final concentration ranging from 1 to 70 nM).
(§2) These enzymes were overproduced in derivatives of E. coli BL21(DE3) carrying a pET-9 a (IMP-1, VIM-1, VIM-2, and VIM-4) or pET-15 b (NDM-1) vector into which the metallo-β-lactamase-encoding open reading frame was cloned. Bacterial strains were grown in the auto-inducing medium, ZYP-5052, supplemented with 50 μg/mL kanamycin for 24 h at 37 °C [38]. IMP-1, VIM-1, VIM-2, and VIM-4 were purified by ion-exchange and gel filtration chromatography using an AKTA Purifier platform (GE Healthcare, Uppsala, Sweden) as previously described. NDM-1 (residues 37-270) was produced as an amino-terminal 6 xHis-tag fusion protein and was purified using affinity chromatography. After growth for 26 h at 25 °C, bacterial cells were harvested by centrifugation (10,000× g, 30 min, 4 °C), resuspended in 10 mM HEPES buffer (pH 7.5) containing 0.15 M NaCl (buffer A) in one-fifth of the original culture volume, and lysed by sonication. Cellular debris was removed by centrifugation (12,000× g, 40 min, 4 °C). The clarified sample was loaded on a HisTrap HP column (bed volume, 5 mL; GE Healthcare), followed by a wash step (25 mL) with buffer A containing 20 mM imidazole. Proteins were eluted using buffer A containing 350 mM imidazole. The resulting protein sample was desalted (HiPrep 26/10 Desalting column, GE Healthcare) using 20 mM triethanolamine (pH 7.2) supplemented with 50 μM ZnSO4 and concentrated using an Amicon Ultra-15 (MW cut-off, 10 kDa; Millipore, Burlington, MA, USA). The concentrated sample was loaded on a Superdex 75 prep grade column (XK16/100 column; bed volume, 140 mL; GE Healthcare) and the proteins eluted with buffer A containing 50 μM ZnSO4. The active fractions were pooled and stored at −20 °C. The purity of the protein preparations was estimated >95% by SDS-PAGE analysis. The authenticity of the enzyme preparations was confirmed by electron spray ionization mass spectrometry, as previously described.
(§3) The inhibition constants (Ki) were determined on the basis of a model of competitive inhibition by analyzing the dependence of the ratio v0/vi (v0, hydrolysis velocity in the absence of inhibitor; vi, hydrolysis velocity in the presence of inhibitor) as a function of [I] as already described. The slope of the plot of v0/vi vs. [I], which corresponds to Km^S/(Km^S + [S])Ki (where Km^S is the Km value of the reporter substrate and [S] its concentration in the reaction mixture) and allowed the calculation of the Ki value. Alternatively, a Dixon plot analysis was carried out by measuring the initial hydrolysis rates in the presence of variable concentrations of inhibitor and substrate. This allowed Ki values to be determined and supported the hypothesis that the various compounds behaved as competitive inhibitors of the various tested enzymes. The assays were performed in triplicate.

Assay [2] deals with T2, NDM-1 (Klebsiella pneumoniae, UniProt C7C422). Nature of the assay: MBL inhibition, reporter substrate method, NDM-1. It is filed as biochemical. As for the experimental part:
as §1, §2, §3

The target in assay [3] is T3, IMP-1 (Serratia marcescens, UniProt P52699).
T3 construct: made in house; host or cells: E. coli BL21(DE3) derivative, pET-9a
T3 sequence (P52699 19-246 limits assumed): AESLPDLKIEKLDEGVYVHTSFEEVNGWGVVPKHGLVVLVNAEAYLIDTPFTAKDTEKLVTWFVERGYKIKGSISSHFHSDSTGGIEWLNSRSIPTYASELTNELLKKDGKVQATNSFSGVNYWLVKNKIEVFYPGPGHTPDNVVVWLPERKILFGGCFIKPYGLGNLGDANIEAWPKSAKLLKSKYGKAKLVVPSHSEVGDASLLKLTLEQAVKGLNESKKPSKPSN
Description: MBL inhibition, reporter substrate method, IMP-1. The class given is biochemical. Conditions: for Ki: value in parentheses, analogs of compounds 5 and 6 (this work), read-out: Ki Value IMP-1, corresponding hydrazone-like compound. Here is the method:
as §1, §2, §3

Assay [4] deals with E. coli LZ2310(pLBII-VIM-2). Description: microbe, parasite or virus in culture. It is filed as cell-based, Escherichia coli. The settings on record: 220 μg added to 30 μg cefoxitin disk (positive control). As for the experimental part: The potential activity of selected compounds was assessed by the agar disk-diffusion method, according to the CLSI (Clinical Laboratory Standard Institute) recommendations, using Mueller–Hinton medium. The inhibitor (dissolved in DMSO) was added (maximum volume of 15 μL) to a commercially available disk containing a defined amount of a β-lactam antibiotic (30 μg of cefoxitin (Oxoid, Milan, Italy)). After incubation (18 h at 35 °C), the diameter of the growth inhibition zone was measured and compared to that obtained in the absence of inhibitor. DMSO and EDTA (220 μg) were used as negative and positive controls, respectively. Experiments were performed in triplicate.
These tests were performed on an isogenic laboratory strain obtained after transforming Escherichia coli LZ2310 strain with a derivative of the high copy number plasmid pLB-II carrying the cloned blaVIM-2 gene harboring a cloned gene encoding the functional metallo-β-lactamase. Strain LZ2310 is a triple knockout mutant derived from K12 in which the genes encoding for components of the three major efflux pump systems were inactivated (genotype, ∆norE ∆mdfA N43 acrA1) and was used to generate an hyperpermeable background for MBL production and investigate the potential contribution of such mechanisms to inhibitor efflux.

Assay [5] addresses T3, IMP-1. Details: method as in PMID 32937203. Conditions: cited from earlier work; for Ki: value in parentheses, read-out: Ki Value IMP-1, corresponding hydrazone-like compound (converted); for Inhibition of IMP-1 (dash in Ki column), corresponding hydrazone-like compound: in parentheses, 100 μM inhibitor.
For assay [6], the target named is T2, NDM-1. On the set-up: method as in PMID 32937203. The settings on record: cited from earlier work; for Inhibition of NDM-1 (dash in Ki column), corresponding hydrazone-like compound: in parentheses, 100 μM inhibitor; for Ki: Schiff base analogs, read-out: Ki Value NDM-1, hydrazone-like compound (converted).
Assay [7] deals with T1, VIM-2. The settings on record: cited from earlier work; for Ki: Schiff base analogs, read-out: Ki Value VIM-2, hydrazone-like compound (converted); for Inhibition of VIM-2 (dash in Ki column), corresponding hydrazone-like compound: in parentheses, 100 μM inhibitor.
Setting [8] is: read-out: Inhibition of VIM-2 (dash in Ki column).
The mark [9] stands for this setting: read-out: Inhibition of NDM-1 (dash in Ki column).
Where [10] appears, read: read-out: Inhibition of IMP-1 (dash in Ki column).
The mark [11] stands for this setting: read-out: Percentage of Inhibition at 100 μM Inhibitor, VIM-2 (dash).
[12] abbreviates: read-out: Percentage of Inhibition at 100 μM Inhibitor, NDM-1 (dash).
The mark [13] stands for this setting: read-out: Percentage of Inhibition at 100 μM Inhibitor, IMP-1 (dash).
Setting [14] is: value in parentheses, analogs of compounds 5 and 6 (this work), read-out: Ki Value NDM-1, corresponding hydrazone-like compound.

Like-named read-outs stand apart in the source and are kept apart here.

As a reminder, the inhibition is the drop in the measured response relative to a control, in per cent. Broadly, the Ki is the dissociation constant of the complex between target and ligand, obtained from inhibition or displacement.

T2 sequence (C7C422 37-270 limits assumed): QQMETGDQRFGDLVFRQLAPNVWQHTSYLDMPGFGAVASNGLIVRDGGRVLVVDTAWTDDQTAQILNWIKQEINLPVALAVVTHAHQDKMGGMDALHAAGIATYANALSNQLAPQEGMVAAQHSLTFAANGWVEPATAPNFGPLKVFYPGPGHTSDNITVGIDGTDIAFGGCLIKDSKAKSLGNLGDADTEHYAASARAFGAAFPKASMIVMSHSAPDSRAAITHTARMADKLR

As to `O=C(O)c1ccccc1CNn1c(-c2cc3ccccc3[nH]2)n[nH]c1=S` [Compound 5], the inhibition at 100 µM in assay [1] (setting [8]), in assay [2] (setting [9]) and in assay [3] (setting [10]) was < 40% in each case.
With `O=C(O)c1ccccc1CNn1c(CCc2ccccc2)n[nH]c1=S` [Compound 8], the inhibition at 100 µM in assay [1] (setting [8]), in assay [2] (setting [9]) and in assay [3] (setting [10]) was < 40% in each case.
For the compound `O=[N+]([O-])c1ccccc1CNn1c(CCc2ccccc2)n[nH]c1=S` [Compound 9], the inhibition at 100 µM in assay [1] (setting [8]), in assay [2] (setting [9]) and in assay [3] (setting [10]) was < 40% each time.
`O=C(O)c1ccc(CNn2c(CCc3ccccc3)n[nH]c2=S)cc1` [Compound 10]: the inhibition at 100 µM in assay [1] (setting [8]), in assay [2] (setting [9]) and in assay [3] (setting [10]) was < 40% in each case.
Consider `O=C(O)c1ccccc1CNn1c(CC(c2ccccc2)c2ccccc2)n[nH]c1=S` [Compound 11], for which the inhibition at 100 µM in assay [1] (setting [8]) and in assay [3] (setting [10]) was < 40% in each case. For the same compound, the “Inhibition of NDM-1 (in words)” value in assay [2] was “moderately inhibited”. Further, in assay [2] (hydrazine series, read-out: Ki Value NDM-1), the Ki worked out at 16.4 ± 2.6 µM.
Turning to `O=C(O)c1ccccc1CNn1c(COc2ccc3ccccc3c2)n[nH]c1=S` [Compound 12], the inhibition at 100 µM in assay [1] (setting [8]), in assay [2] (setting [9]) and in assay [3] (setting [10]) was < 40% each time.
On to `O=C(O)c1ccccc1C(=O)Nn1c(-c2ccccc2)n[nH]c1=S` [Compound 17], for which the Ki in assay [1] (hydrazine and hydrazide series, read-out: Ki Value VIM-2) is > 100 µM. Besides, the inhibition at 100 µM in assay [1] (setting [11]), in assay [2] (setting [12]) and in assay [3] (setting [13]) was < 20% throughout.
Regarding `O=C(O)c1ccccc1C(=O)Nn1c(Cc2ccccc2)n[nH]c1=S` [Compound 18], the inhibition at 100 µM in assay [1] (setting [11]), in assay [2] (setting [12]) and in assay [3] (setting [13]) was < 20% each time.
For `O=C(O)CCC(=O)Nn1c(-c2cccc(-c3ccccc3)c2)n[nH]c1=S` [Compound 20], the inhibition at 100 µM in assay [1] (setting [11]), in assay [2] (setting [12]) and in assay [3] (setting [13]) was < 20% each time.
Take `O=C(O)CN(CCN(CC(=O)O)CC(=O)O)CC(=O)O` [EDTA, reference compound]: the “Inhibition Zone Diameter” value in assay [4] turned out to be 28 mm.
Take `Cc1ccccc1-c1n[nH]c(=S)n1N=Cc1ccccc1C(=O)O` [hydrazone-like analog of 2]: the figures for the Ki in assay [5] and in assay [7] were 58 µM and 3 µM, respectively. For the same compound, in assay [6], the “Inhibition of NDM-1 (dash in Ki column), corresponding hydrazone-like compound” value (shortened to “Inhibition of NDM-1 (dash in Ki column)”) is “- (-) (<40% of inhibition in the presence of 100 μM inhibitor)”.
For the compound `O=C(O)c1ccccc1C=Nn1c(-c2cccc(-c3ccccc3)c2)n[nH]c1=S` [hydrazone-like analog of 3], the Ki in assay [5] is 18 µM; in assay [6], 4.2 µM; in assay [7] it was 0.2 µM.
On to `O=C(O)c1ccccc1C=Nn1c(-c2ccc3ccccc3c2)n[nH]c1=S` [hydrazone-like analog of 4], for which the values for the Ki in assay [5], in assay [6] and in assay [7] were 6.9 µM, 2.3 µM and 0.7 µM, respectively.
On to `O=C(O)c1ccccc1C=Nn1c(-c2cc3ccccc3[nH]2)n[nH]c1=S` [hydrazone-like analog of 5], for which, in assay [1] (read-out: Inhibition of VIM-2 (dash in Ki column), corresponding hydrazone-like compound), the inhibition at 100 µM is < 40%. For the same compound, the Ki amounted to 9.4 µM in assay [2] (setting [14]) and 55 µM in assay [3].
For `O=C(O)c1ccccc1C=Nn1c(Cc2ccccc2)n[nH]c1=S` [hydrazone-like analog of 6], the Ki in assay [1] (value in parentheses, analogs of compounds 5 and 6 (this work), read-out: Ki Value VIM-2, corresponding hydrazone-like compound (converted)) is 3.2 µM; in assay [2] (setting [14]) it was 42 µM; in assay [3] it was 28 µM.
Consider `O=C(O)c1ccccc1C=Nn1c(Cc2ccc3ccccc3c2)n[nH]c1=S` [hydrazone-like analog of 7], for which the values for the Ki in assay [5], in assay [6] and in assay [7] were 34 µM, 1.6 µM and 2.4 µM, respectively.
For the compound `O=C(O)c1ccccc1C=Nn1c(CCc2ccccc2)n[nH]c1=S` [hydrazone-like analog of 8], the “Inhibition of IMP-1 (dash in Ki column), corresponding hydrazone-like compound” value (shortened to “Inhibition of IMP-1 (dash in Ki column)”) in assay [5] is “- (-) (<40% of inhibition in the presence of 100 μM inhibitor)”. For the same compound, in assay [6], the “Inhibition of NDM-1 (dash in Ki column)” value is “- (-) (<40% of inhibition in the presence of 100 μM inhibitor)”. In addition, the inhibitory constant (Ki) in assay [7] is 7 µM.
On to `O=[N+]([O-])c1ccccc1C=Nn1c(CCc2ccccc2)n[nH]c1=S` [hydrazone-like analog of 9], for which the “Inhibition of IMP-1 (dash in Ki column)” value in assay [5] is “- (-) (<40% of inhibition in the presence of 100 μM inhibitor)”. Further, the “Inhibition of NDM-1 (dash in Ki column)” value in assay [6] was “- (-) (<40% of inhibition in the presence of 100 μM inhibitor)”. The “Inhibition of VIM-2 (dash in Ki column), corresponding hydrazone-like compound” value in assay [7] was “- (-) (<40% of inhibition in the presence of 100 μM inhibitor)”.
Consider `O=C(O)c1ccc(C=Nn2c(CCc3ccccc3)n[nH]c2=S)cc1` [hydrazone-like analog of 10], for which, in assay [5], the Ki is 11 µM. Moreover, the “Inhibition of NDM-1 (dash in Ki column)” value in assay [6] is “- (-) (<40% of inhibition in the presence of 100 μM inhibitor)”. In addition, the “Inhibition of VIM-2 (dash in Ki column), corresponding hydrazone-like compound” value in assay [7] is on record as “- (-) (<40% of inhibition in the presence of 100 μM inhibitor)”.
As to `O=C(O)c1ccccc1C=Nn1c(CC(c2ccccc2)c2ccccc2)n[nH]c1=S` [hydrazone-like analog of 11], in assay [5], the “Inhibition of IMP-1 (dash in Ki column)” value is listed as “- (-) (<40% of inhibition in the presence of 100 μM inhibitor)”. Further, the Ki is 2.7 µM in assay [6] and 25 µM in assay [7].
`O=C(O)c1ccccc1C=Nn1c(COc2ccc3ccccc3c2)n[nH]c1=S` [hydrazone-like analog of 12]: the “Inhibition of IMP-1 (dash in Ki column)” value in assay [5] is on record as “- (-) (<40% of inhibition in the presence of 100 μM inhibitor)”. Further, the figures for the inhibition constant (Ki) in assay [6] and in assay [7] were 2.4 µM and 2 µM, respectively.
